Reference: patent US12358907B2, “Substituted pyrrolidine amides III” (GRÜNENTHAL GMBH, priority 2019, dated 2025)

Target: glucocorticoid receptor (GAL4 DBD-GR) (Homo sapiens (Human), UniProt P04150)
Test: GR cell-based assays (GRE agonist / GRE antagonist), CHO-Gal4/GR luciferase reporter
Details: read-out: IC50 or EC50
From the text: Potential selective glucocorticoid receptor modulators of this intervention can be tested for modulation of the activity of the glucocorticoid receptor using cell-based assays. These assays involve a Chinese hamster ovary (CHO) cell line which contains fragments of the glucocorticoid receptor as well as fusion proteins. The glucocorticoid receptor fragments used are capable of binding the ligand (e.g. beclomethasone) to identify molecules that compete for binding with glucocorticoid receptor ligands. In more detail, the glucocorticoid receptor ligand binding domain is fused to the DNA binding domain (DBD) of the transcription factor GAL4 (GAL4 DBD-GR) and is stably integrated into a CHO cell line containing a GAL4-UAS-Luciferase reporter construct. […] After cell lysis the luminescence that is produced by luciferase after addition of the substrate is detected and EC50 or IC50 values can be calcuated. Engagement of molecules which induce gene expression via glucocortocoid receptor binding to the DNA leads to expression of the luciferase gene under the control of the fusion protein GAL4 DBD-GR and therefore to a dose-dependent increase of the luminescence signal. Binding of molecules which repress beclomethasone-induced gene expression of the luciferase gene under the control of the fusion protein GAL4 DBD-GR leads to a dose-dependent reduction of the luminescence signal.
The reporter cell line CHO-Gal4/GR consisted of a chinese hamster ovary (CHO) cell line (Leibniz Institute DSMZ—German Collection of Microorganisms and Cell Cultures GmbH: ACC-110) containing a firefly luciferase gene under the control of the GR ligand binding domain fused to the DNA binding domain (DBD) of GAL4 (GAL4 DBD-GR) stably integrated into CHO cells. This cell line was established by stable transfection of CHO cells with a GAL4-UAS-Luciferase reporter construct. In a subsequent step the ligand binding domain of the GR cloned into pIRES2-EGFP-GAL4 containing the DNA binding domain of GAL4 from pFA-AT2 was transfected. This fusion construct activated firefly luciferase expression under the control of a multimerized GAL4 upstream activation sequence (UAS). The signal of the emitted luminescence was recorded by the FLIPR^TETRA. This allowed for specific detection of ligand-induced activation of the GR and therefore for the identification of compounds with agonistic properties. The GAL4/UAS reporter was premixed with a vector that constitutively expressed Renilla luciferase, which served as an internal positive control for transfection efficiency.
The complete culture medium for the assay was: • DMEM F-12 (1:1) MIXTURE (LONZA cat. No: BE04-687F/U1) 500 mL • 5 mL of 100 mM Sodium Pyruvate (LONZA cat. No: BE12-115E) • 25 mL of 7.5% Sodium Bicarbonate (LONZA cat. No BE17-613E) • 6.5 mL of 1 M Hepes (LONZA cat. No: BE17-737E) • 5 mL of 100× Penicillin/Streptomycin (LONZA cat. No DE17-602E) • 50 mL of Fetal Bovine Serum (Euroclone cat. No ECS 0180L) • 0.25 mL of 10 mg/mL Puromycin (InvivoGen cat.: ant-pr-1) • 0.5 mL of 100 mg/mL Zeocin (InvivoGen cat.: ant-zn-1)
Cryo-preserved CHO-Gal4/GR cells were suspended in complete medium and 5000 cells/25 μl/well were seeded into the wells of 384-well polystyrene assay plates (Thermo Scientific, cat. #4332) and cultured at 37° C., 5% CO2 and 95% humidity. After 24 hours growth medium was carefully removed and replaced by 30 μl Opti-MEM (GIBCO, cat. #31985062) as assay buffer. To test the compounds an 8-point half-log compound dilution curve was generated in 100% DMSO starting from a 2 mM stock and compounds were then diluted 1:50 in Opti-MEM. 10 μl of compounds were then added to the wells containing 30 μl Opti-MEM resulting in a final assay concentration range from 10 μM to 0.003 μM in 0.5% DMSO. Compounds were tested at 8 concentrations in quadruplicate data points. […] Finally, cells were lysed with 20 μl of Triton/Luciferin solution and the signal of the emitted luminescence was recorded at the FLIPR^TETRA for 2 minutes. […]

Chain of glucocorticoid receptor (GAL4 DBD-GR) (P04150 524-758): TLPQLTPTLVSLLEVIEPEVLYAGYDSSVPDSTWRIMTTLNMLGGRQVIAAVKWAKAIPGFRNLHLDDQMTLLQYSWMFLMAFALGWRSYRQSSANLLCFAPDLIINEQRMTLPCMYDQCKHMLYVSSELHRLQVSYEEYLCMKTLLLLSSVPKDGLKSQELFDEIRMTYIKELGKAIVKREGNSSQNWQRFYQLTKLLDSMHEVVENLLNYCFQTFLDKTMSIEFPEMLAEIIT

SMILES | IC50 [nM]
O=C(N[C@@H]1[C@@H](c2ccccc2)N(c2cnc3c(cnn3-c3ccc(F)cc3)c2)C(=O)C12CC2)C1CC1 (racemic) [Example 31, N-[rac-((6R,7S)-5-(1-(4-fluorophenyl)-1H-pyrazolo[3,4-b]pyridin-5-yl)-4-oxo-6-phenyl-5-azaspiro[2.4]heptan-7-yl)]cyclopropanecarboxamide] | 100 to 1000
O=C(N[C@@H]1[C@@H](c2ccccc2)N(c2ccc3c(cnn3-c3ccc(F)cc3)n2)C(=O)C12CC2)C1CC1 (racemic) [Example 33, N-[rac-((6R,7S)-5-(1-(4-fluorophenyl)-1H-pyrazolo[4,3-b]pyridin-5-yl)-4-oxo-6-phenyl-5-azaspiro[2.4]heptan-7-yl)]cyclopropanecarboxamide] | 1000 to 15000
C[C@@H]1C(=O)N(c2ccc3c(cnn3-c3ccc(F)cc3)c2)[C@H](c2ccccc2)[C@H]1NC(=O)C1CC1 (racemic) [Example 46, N-[rac-(2R,3S,4S)-1-[1-(4-Fluorophenyl)-1H-indazol-5-yl]-4-methyl-5-oxo-2-phenyl-pyrrolidin-3-yl]-cyclopropanecarboxylic acid amide] | < 100
C[C@@H]1C(=O)N(c2ccc3c(cnn3-c3ccc(F)cc3)c2)[C@H](c2ccccc2Cl)[C@H]1NC(=O)C(C)(F)F (racemic) [Example 47, N-[rac-(2R,3S,4S)-2-(2-Chlorophenyl)-1-[1-(4-fluorophenyl)-1H-indazol-5-yl]-4-methyl-5-oxo-pyrrolidin-3-yl]-2,2-difluoro-propionamide] | < 100
Cc1ncsc1C(=O)N[C@H]1[C@H](C)C(=O)N(c2ccc3c(cnn3-c3ccc(F)cc3)c2)[C@@H]1c1ccccc1 (racemic) [Example 60, N-[rac(2R,3S,4S)-1-[1-(4-Fluorophenyl)-1H-indazol-5-yl]-4-methyl-5-oxo-2-phenyl-pyrrolidin-3-yl]-4-methyl-thiazole-5-carboxylic acid amide] | 100 to 1000
C[C@@H]1C(=O)N(c2ccc3c(cnn3-c3ccc(F)cc3)c2)[C@H](c2ccccc2)[C@H]1NS(C)(=O)=O (racemic) [Example 61, N-[rac-(2R,3S,4S)-1-[1-(4-Fluorophenyl)-1H-indazol-5-yl]-4-methyl-5-oxo-2-phenyl-pyrrolidin-3-yl]-methanesulfonic acid amide] | 100 to 1000
Cc1cccc([C@@H]2[C@@H](NS(C)(=O)=O)[C@H](C)C(=O)N2c2ccc3c(cnn3-c3ccc(F)cc3)c2)c1 (racemic) [Example 62, N-[rac-(2R,3S,4S)-1-[1-(4-Fluorophenyl)-1H-indazol-5-yl]-4-methyl-2-m-tolyl-5-oxo-pyrrolidin-3-yl]-methanesulfonic acid amide] | 100 to 1000
Cc1cccc([C@@H]2[C@@H](NC(=O)C3CC3)[C@H](C)C(=O)N2c2ccc3c(cnn3-c3ccc(F)cc3)c2)c1 (racemic) [Example 63, N-[rac-(2R,3S,4S)-1-[1-(4-Fluorophenyl)-1H-indazol-5-yl]-4-methyl-2-m-tolyl-5-oxo-pyrrolidin-3-yl]-cyclopropanecarboxylic acid amide] | 100 to 1000
C[C@@H]1C(=O)N(c2ccc3c(cnn3-c3ccc(F)cc3)c2)[C@H](c2ccccc2)[C@H]1NC(=O)c1ccn(C)n1 (racemic) [Example 64, N-[rac-(2R,3S,4S)-1-[1-(4-Fluorophenyl)-1H-indazol-5-yl]-4-methyl-5-oxo-2-phenyl-pyrrolidin-3-yl]-1-methyl-1H-pyrazole-3-carboxylic acid amide] | < 100
C[C@@H]1C(=O)N(c2ccc3c(cnn3-c3ccc(F)cc3)c2)[C@H](c2ccccc2)[C@H]1NC(=O)c1cccnc1 (racemic) [Example 65, N-[rac-(2R,3S,4S)-1-[1-(4-Fluorophenyl)-1H-indazol-5-yl]-4-methyl-5-oxo-2-phenyl-pyrrolidin-3-yl]-pyridine-3-carboxylic acid amide] | < 100
C[C@@H]1C(=O)N(c2ccc3c(cnn3-c3ccc(F)cc3)c2)[C@H](c2ccccc2)[C@H]1NC(=O)c1ncccn1 (racemic) [Example 66, N-[rac-(2R,3S,4S)-1-[1-(4-Fluorophenyl)-1H-indazol-5-yl]-4-methyl-5-oxo-2-phenyl-pyrrolidin-3-yl]-pyrimidine-2-carboxylic acid amide] | < 100
Cc1cccc([C@@H]2[C@@H](NC(=O)c3scnc3C)[C@H](C)C(=O)N2c2ccc3c(cnn3-c3ccc(F)cc3)c2)c1 (racemic) [Example 67, N-[rac-(2R,3S,4S)-1-[1-(4-Fluorophenyl)-1H-indazol-5-yl]-4-methyl-2-m-tolyl-5-oxo-pyrrolidin-3-yl]-4-methyl-thiazole-5-carboxylic acid amide] | < 100
Cc1cccc([C@@H]2[C@@H](NC(=O)c3cccnc3)[C@H](C)C(=O)N2c2ccc3c(cnn3-c3ccc(F)cc3)c2)c1 (racemic) [Example 68, N-[rac-(2R,3S,4S)-1-[1-(4-Fluorophenyl)-1H-indazol-5-yl]-4-methyl-2-m-tolyl-5-oxo-pyrrolidin-3-yl]-pyridine-3-carboxylic acid amide] | 100 to 1000
Cc1cccc([C@@H]2[C@@H](NC(=O)c3ncccn3)[C@H](C)C(=O)N2c2ccc3c(cnn3-c3ccc(F)cc3)c2)c1 (racemic) [Example 69, N-[rac-(2R,3S,4S)-1-[1-(4-Fluorophenyl)-1H-indazol-5-yl]-4-methyl-2-m-tolyl-5-oxo-pyrrolidin-3-yl]-pyrimidine-2-carboxylic acid amide] | < 100
Cc1cccc([C@@H]2[C@@H](NC(=O)C3CC3)[C@@H](C)C(=O)N2c2ccc3c(cnn3-c3ccc(F)cc3)c2)c1 (racemic) [Example 70, N-[rac-(2R,3S,4R)-1-[1-(4-Fluorophenyl)-1H-indazol-5-yl]-4-methyl-2-m-tolyl-5-oxo-pyrrolidin-3-yl]-cyclopropanecarboxylic acid amide] | < 100
Cc1cccc([C@@H]2[C@@H](NC(=O)c3scnc3C)[C@@H](C)C(=O)N2c2ccc3c(cnn3-c3ccc(F)cc3)c2)c1 (racemic) [Example 71, N-[rac-(2R,3S,4R)-1-[1-(4-Fluorophenyl)-1H-indazol-5-yl]-4-methyl-2-m-tolyl-5-oxo-pyrrolidin-3-yl]-4-methyl-thiazole-5-carboxylic acid amide] | 100 to 1000
Cc1cccc([C@@H]2[C@@H](NC(=O)c3ccn(C)n3)[C@@H](C)C(=O)N2c2ccc3c(cnn3-c3ccc(F)cc3)c2)c1 (racemic) [Example 72, N-[rac-(2R,3S,4R)-1-[1-(4-Fluorophenyl)-1H-indazol-5-yl]-4-methyl-2-m-tolyl-5-oxo-pyrrolidin-3-yl]-1-methyl-1H-pyrazole-3-carboxylic acid amide] | < 100
Cc1cccc([C@@H]2[C@@H](NC(=O)c3cccnc3)[C@@H](C)C(=O)N2c2ccc3c(cnn3-c3ccc(F)cc3)c2)c1 (racemic) [Example 73, N-[rac-(2R,3S,4R)-1-[1-(4-Fluorophenyl)-1H-indazol-5-yl]-4-methyl-2-m-tolyl-5-oxo-pyrrolidin-3-yl]-pyridine-3-carboxylic acid amide] | < 100
Cc1cccc([C@@H]2[C@@H](NC(=O)c3ncccn3)[C@@H](C)C(=O)N2c2ccc3c(cnn3-c3ccc(F)cc3)c2)c1 (racemic) [Example 74, N-[rac-(2R,3S,4R)-1-[1-(4-Fluorophenyl)-1H-indazol-5-yl]-4-methyl-2-m-tolyl-5-oxo-pyrrolidin-3-yl]-pyrimidine-2-carboxylic acid amide] | 100 to 1000
